Data from US7432226B2, “Herbicidally active composition” (Bayer CropScience GmbH, priority 2003, dated 2008).

What was measured:
Conditions in all cases: in vivo
[1] = tested on: Corn, cultivar “Lorenzo”; test: Herbicidal post-emergence action, damage to crop plants: corn
Procedure: (§1) Herbicidal Post-emergence Action
(§2) Seeds of monocotyledonous and dicotyledonous weeds and of crop plants are placed in sandy loam soil in plastic pots, covered with soil and cultivated in a greenhouse under good growth conditions.
(§3) Three weeks after sowing, the test plants are treated at the 3-4-leaf stage.
(§4) Stated is the respective degree of damage to the crop plants and the reduction of the damage by the herbicide/safener combinations according to the invention in percent, compared with the herbicide applied alone.

[2] = tested on: Barley, cultivar “Baronesse”; test: Herbicidal post-emergence action, damage to crop plants: barley Baronesse
Procedure: as §1, §2, §3, §4

[3] = tested on: Wheat, cultivar “Kanzler”; test: Herbicidal post-emergence action, damage to crop plants: wheat Kanzler
Procedure: as §1, §2, §3, §4

[4] = tested on: Barley, cultivar “Duett”; test: Herbicidal post-emergence action, damage to crop plants: barley Duett
Procedure: as §1, §2, §3, §4

Compound	Degree of damage [1] [%]	Degree of damage [2] [%]	Degree of damage [3] [%]	Degree of damage [4] [%]
COC(=O)c1ccccc1S(=O)(=O)NC(=O)Nc1nc(C)nc(OC)n1 [herbicide A1.1, metsulfuron-methyl]	50	10	10	
COC(=O)c1sccc1S(=O)(=O)NC(=O)Nc1nc(C)nc(OC)n1 [herbicide A2.1, thifensulfuron-methyl]	20		10	20
COC(=O)c1ccccc1S(=O)(=O)NC(=O)N(C)c1nc(C)nc(OC)n1 [herbicide A3.1, tribenuron-methyl]	10		20	
COc1nc(C)nc(NC(=O)NS(=O)(=O)c2ccccc2Cl)n1 [herbicide A4.1, chlorsulfuron]	70	10		
